Results on seven compounds are retold here after PubChem BioAssay AID624129 (Sanford-Burnham Center for Chemical Genomics, 2012).

The source made the active and inactive calls. How the calls were made is not given here.

One may read the IC50 as the concentration that gives 50% inhibition. As usually defined, the inhibition is the change of the read-out against control, counted positive when it falls.

Common to all, as to experiment: CXCR6 receptor antagonists, dose response, cell-based, beta-arrestin, DiscoveRx, APJ panel, uHTS hits (AID 624129)
Experiment [1] has as its target Apelin receptor (Homo sapiens) (UniProt P35414). Conditions: CXCR6 beta-arrestin (DiscoveRx) antagonist cell assay, APJ.
For experiment [2], the target named is Beta-galactosidase (Escherichia coli) (UniProt Q8VNN2). As to conditions: CXCR6 beta-arrestin (DiscoveRx) antagonist cell assay, b-galactosidase.
Experiment [3] concerns the target C-C chemokine receptor type 6 (Homo sapiens) (UniProt P51684). Conditions: CXCR6 beta-arrestin (DiscoveRx) antagonist cell assay.
The target of experiment [4] is C-X-C chemokine receptor type 6 (Homo sapiens) (UniProt O00574). As to conditions: CXCR6 beta-arrestin (DiscoveRx) antagonist cell assay; for inhibition: CXCR6, run 1, dose range 2, at 80 µM (top of the series).
Where [5] appears, read: dose range 1, mean IC50 across replicates.
The mark [6] stands for this setting: CCR6, dose range 1, mean IC50 across replicates.
Setting [7] is: CXCR6, dose range 1, mean IC50 across replicates.

Beta-galactosidase (Escherichia coli), sequence (Q8VNN2 whole entry, looked up): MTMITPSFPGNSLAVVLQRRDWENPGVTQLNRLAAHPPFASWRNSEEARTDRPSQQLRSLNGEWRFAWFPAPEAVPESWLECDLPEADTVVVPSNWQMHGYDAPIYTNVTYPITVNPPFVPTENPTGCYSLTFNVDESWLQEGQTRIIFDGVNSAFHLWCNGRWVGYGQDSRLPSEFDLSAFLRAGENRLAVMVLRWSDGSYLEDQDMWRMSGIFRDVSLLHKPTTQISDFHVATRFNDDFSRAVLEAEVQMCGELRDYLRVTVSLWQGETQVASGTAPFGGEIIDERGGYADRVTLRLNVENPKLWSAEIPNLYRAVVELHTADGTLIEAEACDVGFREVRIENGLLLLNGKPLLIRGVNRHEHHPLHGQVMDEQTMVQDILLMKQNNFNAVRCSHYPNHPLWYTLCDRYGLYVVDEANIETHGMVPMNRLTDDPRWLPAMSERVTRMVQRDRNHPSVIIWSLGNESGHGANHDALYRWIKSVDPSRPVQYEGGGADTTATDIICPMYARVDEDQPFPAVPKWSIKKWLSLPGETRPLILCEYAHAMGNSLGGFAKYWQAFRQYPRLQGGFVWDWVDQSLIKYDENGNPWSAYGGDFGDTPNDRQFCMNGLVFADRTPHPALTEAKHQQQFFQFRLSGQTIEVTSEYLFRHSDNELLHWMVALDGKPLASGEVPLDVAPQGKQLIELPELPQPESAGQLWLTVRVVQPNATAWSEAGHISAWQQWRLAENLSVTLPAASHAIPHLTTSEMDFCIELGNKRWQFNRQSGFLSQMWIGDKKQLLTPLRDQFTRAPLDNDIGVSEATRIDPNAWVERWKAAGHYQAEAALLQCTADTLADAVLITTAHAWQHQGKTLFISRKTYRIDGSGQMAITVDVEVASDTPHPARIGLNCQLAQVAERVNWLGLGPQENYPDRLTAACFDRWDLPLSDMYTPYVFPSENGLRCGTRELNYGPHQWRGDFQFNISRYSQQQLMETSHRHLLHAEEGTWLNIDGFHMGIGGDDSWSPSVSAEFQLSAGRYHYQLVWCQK
C-X-C chemokine receptor type 6 (Homo sapiens), sequence (O00574 whole entry, looked up): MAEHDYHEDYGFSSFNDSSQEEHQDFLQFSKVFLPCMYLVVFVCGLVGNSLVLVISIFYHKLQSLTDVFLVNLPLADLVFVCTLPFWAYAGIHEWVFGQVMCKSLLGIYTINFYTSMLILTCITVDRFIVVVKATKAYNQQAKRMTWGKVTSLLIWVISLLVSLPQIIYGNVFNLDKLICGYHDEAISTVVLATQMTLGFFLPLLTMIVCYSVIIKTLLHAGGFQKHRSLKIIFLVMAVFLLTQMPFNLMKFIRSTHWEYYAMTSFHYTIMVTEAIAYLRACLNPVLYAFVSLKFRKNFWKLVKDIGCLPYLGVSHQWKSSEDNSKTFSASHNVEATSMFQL

Turning to `N#CC(C#N)=C1C=CC=CN1/C(=C\c1ccco1)C(=O)c1ccc(Br)cc1`, the IC50 in experiment [1] (setting [5]) was more than 80 µM; in experiment [1] (run 2, dose range 1) it was more than 80 µM; in experiment [1] (run 3, dose range 1) it was more than 80 µM; in experiment [2] (dose range 1), > 80 µM (inactive); in experiment [2] (setting [5]), more than 80 µM; in experiment [3] (setting [6]), more than 80 µM. Moreover, the 50% inhibitory concentration (IC50) in experiment [3] (CCR6, run 2, dose range 1) was more than 80 µM; in experiment [4] (CXCR6, dose range 1) it was > 80 µM (inactive); in experiment [4] (setting [7]), more than 80 µM; in experiment [4] (CXCR6, run 2, dose range 1) it was more than 80 µM. Also, the inhibition in experiment [4] was 19.9%.

As for `On1ccccc1=S`, the IC50 in experiment [1] (dose range 1) was 13.2 µM; in experiment [1] (setting [5]), 17.6 µM; in experiment [1] (run 2, dose range 1), 17.5 µM; in experiment [1] (run 3, dose range 1), 22.2 µM; in experiment [3] (CCR6, dose range 1), 11.5 µM; in experiment [3] (setting [6]) it was 27 µM. Besides, the concentration for half-maximal inhibition (IC50) in experiment [3] (CCR6, run 2, dose range 1) is 42.4 µM; in experiment [4] (setting [7]), 17.8 µM; in experiment [4] (CXCR6, run 2, dose range 1) it was 17.3 µM. Besides, in experiment [4], the activity value is 80 µM (inactive). Besides, the IC50 entry in experiment [4] (CXCR6, dose range 1) was “inactive”. The inhibition in experiment [4] turned out to be 51.2%.

Regarding `COc1ccc(C(=O)N/N=C(\C)c2ccccn2)cc1OC`, the IC50 in experiment [1] (dose range 1) was 1.82 µM; in experiment [1] (setting [5]) it was 2.39 µM; in experiment [1] (run 2, dose range 1), 2.48 µM; in experiment [1] (run 3, dose range 1), 2.86 µM; in experiment [2] (dose range 1), > 80 µM (inactive); in experiment [2] (setting [5]), more than 80 µM. Besides, the IC50 is 2.06 µM in experiment [3] (CCR6, dose range 1); 2.38 µM in experiment [3] (setting [6]); 2.71 µM in experiment [3] (CCR6, run 2, dose range 1); 2.56 µM in experiment [4] (CXCR6, dose range 1); 1.99 µM in experiment [4] (setting [7]); 1.65 µM in experiment [4] (CXCR6, run 1, dose range 2). Besides, the IC50 in experiment [4] (CXCR6, run 2, dose range 1) worked out at 2.6 µM; in experiment [4] (CXCR6, run 2, dose range 2), 1.14 µM.

`CC(Oc1cccc(Cl)c1)C(=O)Nc1nc(-c2ccccn2)cs1` (stereo unspecified): the half-inhibitory concentration (IC50) in experiment [1] (dose range 1) was 8.02 µM; in experiment [1] (setting [5]), 8.47 µM; in experiment [1] (run 2, dose range 1), 8.75 µM; in experiment [1] (run 3, dose range 1) it was 8.64 µM; in experiment [2] (dose range 1), > 80 µM (inactive); in experiment [2] (setting [5]), more than 80 µM. The IC50 in experiment [3] (CCR6, dose range 1) is 6.82 µM; in experiment [3] (setting [6]) it was 7.6 µM; in experiment [3] (CCR6, run 2, dose range 1), 8.37 µM; in experiment [4] (CXCR6, dose range 1), 8.97 µM; in experiment [4] (setting [7]), 7.17 µM; in experiment [4] (CXCR6, run 1, dose range 2), 5.61 µM. The IC50 in experiment [4] (CXCR6, run 2, dose range 1) was 7.93 µM; in experiment [4] (CXCR6, run 2, dose range 2), 6.18 µM.

Take `O=C1CN(C(=O)CSc2nc3cc(Cl)ccc3c(=O)n2Cc2ccccc2)c2ccccc2N1`: the IC50 is > 80 µM (inactive) in experiment [1] (dose range 1); more than 80 µM in experiment [1] (setting [5]); more than 80 µM in experiment [1] (run 2, dose range 1); more than 80 µM in experiment [1] (run 3, dose range 1); > 80 µM (inactive) in experiment [2] (dose range 1); more than 80 µM in experiment [2] (setting [5]). The half-maximal inhibitory concentration (IC50) is 9.4 µM in experiment [3] (CCR6, dose range 1); 11.1 µM in experiment [3] (setting [6]); 12.7 µM in experiment [3] (CCR6, run 2, dose range 1); 8.57 µM in experiment [4] (setting [7]); 9.5 µM in experiment [4] (CXCR6, run 1, dose range 2); more than 80 µM in experiment [4] (CXCR6, run 2, dose range 1). The IC50 in experiment [4] (CXCR6, run 2, dose range 2) was found to be 7.63 µM.

As to `CS(=O)(=O)c1ccc(C(=O)OCc2nnc(-c3ccccc3)o2)cc1[N+](=O)[O-]`, the half-maximal inhibitory concentration (IC50) in experiment [1] (dose range 1) is 4.43 µM; in experiment [1] (setting [5]), 3.86 µM; in experiment [1] (run 2, dose range 1), 3.23 µM; in experiment [1] (run 3, dose range 1), 3.93 µM; in experiment [2] (dose range 1), > 80 µM (inactive); in experiment [2] (setting [5]), more than 80 µM. Also, the concentration for half-maximal inhibition (IC50) is 7.32 µM in experiment [3] (CCR6, dose range 1); 8.49 µM in experiment [3] (setting [6]); 9.67 µM in experiment [3] (CCR6, run 2, dose range 1); 3.8 µM in experiment [4] (CXCR6, dose range 1); 3.17 µM in experiment [4] (setting [7]); 3.23 µM in experiment [4] (CXCR6, run 1, dose range 2). Further, the IC50 in experiment [4] (CXCR6, run 2, dose range 1) amounted to 3.64 µM; in experiment [4] (CXCR6, run 2, dose range 2) it was 2.03 µM.

For `O=C(C#Cc1ccccc1)c1ccc([N+](=O)[O-])cc1`, the concentration for half-maximal inhibition (IC50) in experiment [1] (dose range 1) was 4.35 µM; in experiment [1] (setting [5]), 4.53 µM; in experiment [1] (run 2, dose range 1) it was 5.55 µM; in experiment [1] (run 3, dose range 1) it was 3.7 µM; in experiment [2] (dose range 1), > 80 µM (inactive); in experiment [2] (setting [5]), more than 80 µM. For the same compound, the IC50 in experiment [3] (CCR6, dose range 1) is 1.46 µM; in experiment [3] (setting [6]), 1.72 µM; in experiment [3] (CCR6, run 2, dose range 1), 1.98 µM; in experiment [4] (CXCR6, dose range 1) it was 2.67 µM; in experiment [4] (setting [7]) it was 2.62 µM; in experiment [4] (CXCR6, run 2, dose range 1) it was 2.57 µM. In addition, in experiment [4], the inhibition came to 131%.
